Results: patent publication US12473290B2, “Imidazopyridazine compounds useful as modulators of IL-12, IL-23 and/or IFN alpha responses” (BRISTOL-MYERS SQUIBB COMPANY, priority 2019, dated 2025)
pIC50: −log10 of the molar value.

Key:
Assay type in all cases: cell-based
[1] = system: IL-23 Kit225 Reporter (Kit225 T cells with a stably-integrated STAT-dependent luciferase reporter, stimulated with IL-23); test: Kit225 T Cell Assay, IL-23-stimulated STAT-dependent luciferase reporter; settings: 20 ng/mL human recombinant IL-23, 5-6 hours, luciferase expression
Experimental: (§1) Kit225 T cells with a stably-integrated STAT-dependent luciferase reporter were plated in RPMI (Gibco) containing 10% heat-inactivated FBS (Gibco) and 100 U/mL PenStrep (Gibco). The cells were then stimulated with either 20 ng/mL human recombinant IL-23 or 200 U/mL human recombinant IFNα (PBL InterferonSource) for 5-6 hours. Luciferase expression was measured using the STEADY-GLO® Luciferase Assay System (Promega) according to the manufacturer's instructions. Inhibition data were calculated by comparison to no inhibitor control wells for 0% inhibition and non-stimulated control wells for 100% inhibition. Dose response curves were generated to determine the concentration required to inhibit 50% of cellular response (IC50) as derived by non-linear regression analysis.

[2] = system: IFNα Kit225 Reporter (Kit225 T cells with a stably-integrated STAT-dependent luciferase reporter, stimulated with IFNα); test: Kit225 T Cell Assay, IFNα-stimulated STAT-dependent luciferase reporter; settings: 200 U/mL human recombinant IFNα, 5-6 hours, luciferase expression
Experimental: as §1

[3] = Kit225 T Cell Assay, IL-23-stimulated STAT-dependent luciferase reporter; settings: Kit225 T cells, 20 ng/mL human recombinant IL-23, 5-6 hours, luciferase expression
Experimental: as §1

Compound | pIC50 [2] | pIC50 [3] | pIC50 [1]
N#Cc1cnc2c(Nc3ccc(C(=O)N4[C@H]5CC[C@@H]4CC5)c(OCC(F)F)n3)cc(NC3CCOCC3)nn12 [Example 46, 8-{[6-(2,2-difluoroethoxy)-5-[(1s,4s)-7-azabicyclo[2.2.1]heptane-7-carbonyl]pyridin-2-yl]amino}-6-[(oxan-4-yl)amino]imidazo[1,2-b]pyridazine-3-carbonitrile] | 6.44 |  | 7.22
CC(C)Oc1nc(Nc2cc(N[C@@H]3CCCC[C@H]3O)nn3c(C#N)cnc23)ccc1C(=O)N1CCCC1 [Example 1, 6-{[(1R,2R)-2-hydroxycyclohexyl]amino}-8-{[6-(propan-2-yloxy)-5-(pyrrolidine-1-carbonyl)pyridin-2-yl]amino}imidazo[1,2-b]pyridazine-3-carbonitrile] | 6.08 | 6.62 | 
CC(C)(C)N1CCN(c2cccc(Nc3cc(N[C@@H]4CCCC[C@H]4O)nn4c(C#N)cnc34)n2)C1=O [Example 6, 8-{[6-(3-tert-butyl-2-oxoimidazolidin-1-yl)pyridin-2-yl]amino}-6-{[(1R,2R)-2-hydroxycyclohexyl]amino}imidazo[1,2-b]pyridazine-3-carbonitrile] | 6.35 | 6.24 | 
CC(=O)NCc1ccc(-c2cccc(Nc3cc(N[C@@H]4CCCC[C@H]4O)nn4c(C#N)cnc34)n2)cc1 [Example 37, N-[(4-{6-[(3-cyano-6-{[(1R,2R)-2-hydroxycyclohexyl]amino}imidazo[1,2-b]pyridazin-8-yl)amino]pyridin-2-yl}phenyl)methyl]acetamide] | 6.26 | 6.33 | 
CN(C(=O)c1ccc(Nc2cc(NC3CCOCC3)nn3c(C#N)cnc23)nc1OCC(F)F)C1COC1 [Example 44, 6-({3-cyano-6-[(oxan-4-yl)amino]imidazo[1,2-b]pyridazin-8-yl}amino)-2-(2,2-difluoroethoxy)-N-methyl-N-(oxetan-3-yl)pyridine-3-carboxamide] | 6.07 | 6.62 | 
N#Cc1cnc2c(Nc3cccc(N4C(=O)NC5(CCCCC5)C4=O)n3)cc(N[C@@H]3CCCC[C@H]3O)nn12 [Example 58, 8-[(6-{2,4-dioxo-1,3-diazaspiro[4.5]decan-3-yl}pyridin-2-yl)amino]-6-{[(1R,2R)-2-hydroxycyclohexyl]amino}imidazo[1,2-b]pyridazine-3-carbonitrile] | 6.09 | 6.26 | 
N#Cc1cnc2c(Nc3ccc(C(=O)NCC4CCCO4)c(OCC(F)F)n3)cc(N[C@@H]3CCCC[C@H]3O)nn12 (stereo partly drawn) [Example 35, 6-[(3-cyano-6-{[(1R,2R)-2-hydroxycyclohexyl]amino}imidazo[1,2-b]pyridazin-8-yl)amino]-2-(2,2-difluoroethoxy)-N-[(oxolan-2-yl)methyl]pyridine-3-carboxamide] | 6.21 | 6.20 | 
CCNc1nc(Nc2cc(N[C@H]3CCCC[C@@H]3O)nn3c(C#N)cnc23)ccc1C(=O)N1CCCC1 [Example 29, 8-{[6-(ethylamino)-5-(pyrrolidine-1-carbonyl)pyridin-2-yl]amino}-6-{[(1S,2S)-2-hydroxycyclohexyl]amino}imidazo[1,2-b]pyridazine-3-carbonitrile] | 6.42 | 6.85 | 
CN1CCN(c2cccc(Nc3cc(N[C@@H]4CCCC[C@H]4O)nn4c(C#N)cnc34)n2)CC1 [Example 62, 6-{[(1R,2R)-2-hydroxycyclohexyl]amino}-8-{[6-(4-methylpiperazin-1-yl)pyridin-2-yl]amino}imidazo[1,2-b]pyridazine-3-carbonitrile] | 6.70 | 6.54 | 
CC(C)Oc1nc(Nc2cc(NC3CCOCC3)nn3c(C#N)cnc23)ccc1C(=O)N1CCCC1 [Example 43, 6-[(oxan-4-yl)amino]-8-{[6-(propan-2-yloxy)-5-(pyrrolidine-1-carbonyl)pyridin-2-yl]amino}imidazo[1,2-b]pyridazine-3-carbonitrile] | 6.35 | 6.80 | 

Now from value to compound, other results behind:

pIC50 [2] | pIC50 [3] | Compound | pIC50 [1]
6.12 | 6.37 | COc1ccc(Nc2cc(NC34CC5CC(O)(CC(O)(C5)C3)C4)nn3c(C#N)cnc23)nc1NC(=O)C(C)(C)C [Example 21, N-[6-({3-cyano-6-[(3,5-dihydroxyadamantan-1-yl)amino]imidazo[1,2-b]pyridazin-8-yl}amino)-3-methoxypyridin-2-yl]-2,2-dimethylpropanamide] | 
6.49 | 6.96 | C[C@@H](NC(=O)c1cccc(Nc2cc(NC34CC5CC(CC(O)(C5)C3)C4)nn3c(C#N)cnc23)n1)C(F)(F)F [Example 41, 6-({3-cyano-6-[(3-hydroxyadamantan-1-yl)amino]imidazo[1,2-b]pyridazin-8-yl}amino)-N-[(2R)-1,1,1-trifluoropropan-2-yl]pyridine-2-carboxamide] | 
6.41 | 6.59 | CC(=O)N1[C@H](C)CN(c2cccc(Nc3cc(NC45CC6CC(CC(O)(C6)C4)C5)nn4c(C#N)cnc34)n2)C[C@@H]1C [Example 40, 8-({6-[(3R,5S)-4-acetyl-3,5-dimethylpiperazin-1-yl]pyridin-2-yl}amino)-6-[(3-hydroxyadamantan-1-yl)amino]imidazo[1,2-b]pyridazine-3-carbonitrile] | 
6.47 | 6.15 | N#Cc1cnc2c(Nc3cccc(N)n3)cc(N[C@@H]3CCCC[C@H]3O)nn12 [Example 66, 8-[(6-aminopyridin-2-yl)amino]-6-{[(1R,2R)-2-hydroxycyclohexyl]amino}imidazo[1,2-b]pyridazine-3-carbonitrile] | 
6.57 | 6.82 | N#Cc1cnc2c(Nc3cccc(NC(=O)c4ccccc4)n3)cc(N[C@@H]3CCCC[C@H]3O)nn12 [Example 10, N-{6-[(3-cyano-6-{[(1R,2R)-2-hydroxycyclohexyl]amino}imidazo[1,2-b]pyridazin-8-yl)amino]pyridin-2-yl}benzamide] | 
